# According to a melting point compilation (Tetko et al.; mined from patent text by program, amines drawn as free bases though some values may be those of a salt):
row,SMILES,melting point
1,COc1cc([N+](=O)[O-])c(C)cc1Br,91 to 92 °C
2,O=C(O)c1cn(CC2CC2)c2ccccc12,157 °C
3,O=C(c1ccc(F)cc1)c1cccc(C#Cc2cccc(C(=O)c3ccc(F)cc3)c2)c1,205 to 206 °C
4,O=C(OCc1ccccc1)c1ccc2[nH]ccc2c1,127 to 129 °C
5,COc1ccc(C(=N)NS(=O)(=O)C=Cc2ccc(Cl)c(Cl)c2)cc1OC,205 to 210 °C
6,CO[Si](OC)(OC)c1ccc(C#Cc2ccc(C#Cc3ccc([Si](OC)(OC)OC)cc3)cc2)cc1,164 to 166 °C
7,CCOC(=O)C1=CC(C(=O)c2cc(Cl)c(C)cc2O)=CN2CCc3c([nH]c4ccccc34)C12C(=O)OCC (stereo not given),196 °C
8,O=C(O)CCCNC(=O)c1ccccc1NC(=O)c1ccccc1Br,117 to 118 °C
9,Oc1cc(Cl)c2c(C34CC5CC(CC(C5)C3)C4)noc2c1,215 °C
10,COc1ccc(CNC(=O)c2cn3c(=O)n(Cc4ccccc4)c(=O)c(C)c3s2)cc1,160 to 162 °C
11,FC(F)(F)c1nnc(-c2ccc(Cl)cc2)n1-c1ccc(Cl)cc1,184 °C
12,O=C(/C=C/c1ccc(F)cc1)c1cnc2sc3c(n12)CCCCC3,187 to 188 °C
13,COc1nsc(N2CCN(c3ccccn3)CC2)n1,144 to 145 °C
14,CCN1C(=O)c2cnc(-c3ccccc3)nc2Nc2ccccc21,198 to 199 °C
15,COc1ccc2c(c1)c(/C=C/C(=O)c1ccncc1)cn2C,178 to 182 °C
16,CN1CCN(c2ccnc3c(NC(=O)c4ccccc4[N+](=O)[O-])cccc23)C1=O,226 to 228 °C
17,CC(C)c1ccc(-c2nc(=O)n(Cc3ccccc3)c3ccc(OCC#N)cc23)cc1,139 to 141 °C
18,COc1cc2c(cc1OC)C(=CC(N)=O)NCC2,156 to 158 °C
19,CCCCCOC1=C(c2ccccc2)C(CCC(=O)O)OC1=O (stereo not given),86 to 87 °C
20,CCOC(=O)c1cnc(SC)nc1NC(C)C,159 to 160 °C
21,N#CCc1cc([N+](=O)[O-])c(F)cc1Cl,67 to 68 °C
22,Nc1nc(-c2cc(Cl)ccc2Cl)nc(N2CCC(O)CC2)n1,222 to 224 °C
23,COC(=O)c1ccc(OCC2CN(c3ccc(NC(C)=O)cc3)C(=O)O2)cc1 (stereo not given),188 to 190 °C
24,CCOc1ccc([N+](=O)[O-])c(NN2CCOCC2)c1,152 °C
25,CC(=O)ON(CCOc1ccc2c(c1)CCN(CCCc1ccc(F)cc1)C2=O)C(N)=O,113 to 114 °C
26,O=C1C=CC(OC2CCCC2)N1 (stereo not given),81 to 82 °C
27,CCN(CC)C(=O)n1cnc(Sc2cc(F)c(C#N)cc2F)n1,80 °C

row,SMILES,melting point
1,[N-]=[N+]=Nc1cc(N)cc(I)c1,89 to 91 °C
2,Cn1ccnc1S[Si](C)(C)C,49 to 52 °C
3,O=C(O)C(O)COc1ccc(Cl)cc1 (stereo not given),135 to 136 °C
4,O=C(Nc1cc2ncc(CN3CCCC3)cc2cc1F)c1ccc(-c2ccccc2)cc1,206 to 208 °C
5,O=c1oc(Nc2ccc(Oc3ccccc3)cc2)nc2sccc12,206 to 210 °C
6,CC(=O)Nc1ccc(C(C)=O)cn1,146 to 147 °C
7,CN1Cc2cccnc2N(c2cccc(Cl)c2)C1=O,139 to 140 °C
8,COc1cccc(CC(=O)O)c1OCc1cc(OCc2ccc3ccccc3n2)n(C(C)C)n1,84 to 85 °C
9,Fc1cccc(N=C2SCCN2C(=S)Nc2cccc(F)c2)c1,108 to 109 °C
10,CC(C)C(=O)c1ccc(F)cc1O,160 °C
11,COc1cc2c(Nc3ccc(Sc4nccn4C)c(Cl)c3)c(C#N)cnc2cc1-c1csc(CN2CCOCC2)c1,238 to 240 °C
12,O=C(/C=C/c1ccc2ccccc2c1)Nc1ccccc1-c1nnn[nH]1,187 to 191 °C
13,CCOC(=O)Nc1nc2ccccc2c2c(CC(C)C)n(C)nc12,120 to 121 °C
14,O=c1cc(C2(Br)CCCCC2)oc2c(CBr)cccc12,134 to 135 °C
15,COC(=O)CCCc1cc2cc(Cl)ccc2n1S(=O)(=O)c1ccc(F)c([N+](=O)[O-])c1,93 °C
16,NC(=O)C1(CCCCCCCCCCCCC2(C(=O)O)CC2)CC1,117 to 118 °C
17,CCC(Oc1c(F)ccc(C)c1F)C1=NCCN1 (stereo not given),70.5 to 71 °C
18,COc1ccnc(CCc2nc3cc(-c4ccco4)cnc3[nH]2)c1,147 to 148 °C
19,CN(C)c1cc(C(OC(=O)C(Cl)(Cl)Cl)c2ccccc2)c([N+](=O)[O-])cc1[N+](=O)[O-] (stereo not given),91 to 92 °C
20,CCOCn1c(Oc2ccccc2)c(C(C)C)c(=O)[nH]c1=O,137 to 138 °C
21,"COCN1C(C)=C(C(=O)O)C(c2cccc(Cl)c2Cl)C(C(=O)OCOC(=O)C(C)(C)C)=C1C (single isomer, unassigned; (+))",89 to 90 °C
22,COc1cc2sc(C(=N)NO)cc2c(F)c1OC,186 to 190 °C
23,CCC(=O)c1cc2cc(OC)ccc2[nH]1,170 to 172 °C
24,CC(=CC(=O)O)C(=O)NN,281 to 284 °C
25,CCOc1ccc(C(C)=O)cc1C(=O)Nc1c(C)cccc1C(N)=O,214 to 216 °C
26,CC(C)N1CCN(c2ccc(Br)cn2)CC1,76 to 78 °C
27,Fc1ccc(C(c2ccc(Cl)cc2Cl)C(F)n2cncn2)cc1 (stereo not given),96 to 104 °C

row,SMILES,melting point
1,CC12CCC3c4ccc(C(=O)O)cc4CCC3C1CCC2C(=O)c1ccc(C(F)(F)F)cc1 (stereo not given),300 to 303 °C
2,CN(C)CCCNc1ccc([N+](=O)[O-])cc1,60 to 61.5 °C
3,Cc1noc(-c2cn(-c3cccc(Br)c3)cn2)n1,200 to 202 °C
4,CSc1ccc2c3c(cccc13)C(=O)N2CCCC#N,120 to 122 °C
5,COC(=O)c1cn2c(n1)COc1ccccc1-2,133 to 134 °C
6,NC(=O)c1ccc(OCCNCC(O)c2ccccc2)cc1O (stereo not given),141 to 142 °C
7,CCOC(=O)CON(CC)C(=S)Nc1ccccc1C(C)C,57 to 58 °C
8,CN(C)S(=O)(=O)n1cc(I)cn1,32 °C
9,CC(c1c(F)ccc(F)c1Cl)N1CCNc2ncc(I)cc21 (stereo not given),166 °C
10,CCNC(=N)NC(=O)Cc1ccc(Cl)cc1,146 to 147 °C
11,CCN(CC)c1ccc(-c2nc3ccc(OC(F)(F)F)cc3[nH]2)cc1,168 to 173 °C
12,FC(F)(F)c1ccc(-c2cc(Oc3cccc4ccc(Cl)nc34)ncn2)cc1,172 to 173 °C
13,CN(C)C(=O)c1ccc(C(=O)O)c(S(=O)(=O)NC(C)(C)C)c1,> 260 °C
14,O=C(O)COc1ccc2c(-c3cccc(F)c3F)noc2c1Cl,183 to 187 °C
15,Cc1c(C(=O)CC(C)C)cc2c(c1C)OC(C(=O)O)C2 (stereo not given),117 °C
16,c1ccc(CN2CCc3c(sc4nc5ccccc5n34)C2)cc1,124 to 129 °C
17,Cc1nnc(-c2nnc(SCCC(F)=C(F)F)o2)o1,77 to 79 °C
18,Clc1cc2nc3c4ccccc4c4ccccc4c3nc2cc1Cl,263 to 264 °C
19,Cn1cc(C(O)(c2ccc3c(cnn3C(=O)OC3CCC3)c2)C(F)(F)F)c2ccccc21 (stereo not given),82 to 84 °C
20,Cn1nnnc1SCCl,55 to 57 °C
21,CSc1sc2ccccc2c1C=O,50 to 53 °C
22,CCOC(=O)C(=O)C1C(=O)c2cccc3c2C1CCC3 (stereo not given),92 to 94 °C
23,CCc1cccc(C)c1CNc1nc(Br)cc(N)c1[N+](=O)[O-],126 to 128 °C
24,CC(C)(C)OC(=O)Nc1ccc(F)nc1,112 to 113 °C
25,CN(C=O)c1cc(F)ccc1C(=O)CS(C)(=O)=O,94.5 to 95.5 °C
26,C#CCn1c(=O)n(-c2ccccc2)c2ccccc21,145 to 147 °C
27,C=CCC(CC=C)(CC=C)C(=O)O[C@H]1C[C@H](O)C=C2C=C[C@H](C)[C@H](CC[C@@H]3C[C@@H](O)CC(=O)O3)[C@H]21,118 to 119 °C

row,SMILES,melting point
1,COC(=O)c1cc(C(=O)NCC(C)C)c2cc(Cc3ccc(F)cc3)cnc2c1O,178 to 179 °C
2,C[C@H](O)[C@@H](Nc1ccc(C#N)c(Cl)c1Cl)c1nnc(-c2ccccc2)o1,156 °C
3,COC(=O)NCC1Cc2c(Cl)cc3c(c2O1)CCC3 (stereo not given),139 to 141 °C
4,C[C@@H](Nc1ncnc2[nH]c(-c3ccc(CCl)cc3)cc12)c1ccccc1,> 320 °C
5,Cc1cc(Nc2nccc(-c3sc(CO)nc3C)n2)ccc1N1CCOCC1,93 to 94 °C
6,CCCN=C(N)Nc1ccnc(S(C)=O)n1 (stereo not given),179 to 180 °C
7,CCOC(=O)c1cc(CC)cnc1CNC(C)(C(N)=O)C(C)C (stereo not given),68 to 72 °C
8,CCOC(=O)c1sc2ccc(Br)cc2c1C,87 to 88 °C
9,CC(=O)Nc1c(-c2cc(Cl)ccc2O)c2cc(C(F)(F)F)ccc2[nH]c1=O,222 to 224 °C
10,CNC(=Nc1ccccc1N1CCCCC1)C(C)(C)C,78 °C
11,Cc1n[nH]c(-c2cc(Cl)ccc2N)n1,190 to 195 °C
12,c1ccc(OCCSCc2nnc(-c3ccc(OCCN4CCCCCC4)cc3)o2)cc1,40 °C
13,CC1(C)CCC(N2c3ccccc3Oc3ccc(C(F)(F)F)cc32)=N1,64 to 67 °C
14,O=[N+]([O-])c1oc2ccc(NCc3ccccc3)cc2c1-c1ccccc1,118 to 120 °C
15,CC(=O)OC1CSC(Oc2cc(-c3ccc(C#N)cc3)cnc2F)C(OC(C)=O)C1OC(C)=O (stereo not given),132 to 133 °C
16,Cn1ccc2c1CCn1ccnc1C2=C1CCN(CCNc2ncccn2)CC1,202 °C
17,CCCCCCc1cccc(N2CC(=O)NC(=O)N2)c1,95 to 99 °C
18,Cc1c(NC(=O)c2cc3c(s2)CCCC3)cccc1-c1cn(C)c(=O)c(Nc2ccc(C3C(=O)N(C)CCN3C)cc2)n1 (stereo not given),155 to 156 °C
19,CCOC(=O)c1ccc(S(=O)(=O)Oc2c(-c3ccccc3)cc(C(=O)c3ccccc3)cc2-c2ccccc2)cc1O,75 to 85 °C
20,CCOC(=O)C1CCc2cc(C(=O)c3ccccc3)c(O)cc21 (stereo not given),83 to 84 °C
21,CC1(C)C(=O)c2c(cc(O)c(Cl)c2Cl)C1c1ccccc1 (stereo not given),259 to 262 °C
22,CC1=NCCc2c1n(-c1ccccc1)c1ccccc21,110 to 112 °C
23,N#CC1CCc2ccc([N+](=O)[O-])cc2C(=O)C1 (stereo not given),107 °C
24,COc1ccc(C(=O)Cc2cccs2)cc1,44 to 45.5 °C
